For 3 compounds, MIC results are on record in patent US5593984A, “Cephalosporin derivatives” (Yuhan Corporation, priority 1992, dated 1997).

≈ marks a conversion by molar mass, not a printed value.

What all share (assay type): cell-based
One assay deals with E. coli DY-1. The assay can be described thus: MIC by agar dilution, E. coli DY-1. The following applies: Escherichia coli, DY1, 17 h; E. coli DY-1; agar dilution, Mueller-Hinton agar; read-out: Minimal Inhibitory Concentration (MIC). In short, it runs like this: (§1)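 MIC is the endpoint, obtained by agar dilution after 17±1 hours at 35°-37° C. on Mueller-Hinton agar containing doubling compound concentrations; strains inoculated at 10^6 CFU per ml.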
In general terms: Agar dilution tests growth on a series of plates holding different concentrations.

Another assay has as its system Staph. aureus C-5216. The assay can be described thus: MIC by agar dilution, Staph. aureus C-5216. The following applies: Staphylococcus aureus, C5216, 17 h, Mueller-Hinton agar, read-out: Minimal Inhibitory Concentration (MIC). In short, it runs like this:
as §1

A further assay concerns M. morganii DY-1. In words: MIC by agar dilution, M. morganii DY-1. The settings on record: Morganella morganii, DY1, 17 h; M. morganii DY-1; agar dilution, Mueller-Hinton agar; read-out: Minimal Inhibitory Concentration (MIC). In short, it runs like this:
as §1

In another assay the test system is Staph. aureus C-5113. The assay can be described thus: MIC by agar dilution, Staph. aureus C-5113. The settings on record: Staphylococcus aureus, C5113, 17 h, Mueller-Hinton agar, read-out: Minimal Inhibitory Concentration (MIC). In short, it runs like this: as §1
Assay [1] deals with Ps. aeruginosa NCTC 10490. The assay can be described thus: MIC by agar dilution, Ps. aeruginosa NCTC 10490. The settings on record: Pseudomonas aeruginosa, NCTC10490, 17 h, Mueller-Hinton agar, read-out: Minimal Inhibitory Concentration (MIC). In short, it runs like this:
as §1

The test system of another assay is Ent. aerogenes IFO 12979. The assay can be described thus: MIC by agar dilution, Ent. aerogenes IFO 12979. The settings on record: Klebsiella aerogenes, IFO12979, 17 h, Mueller-Hinton agar, read-out: Minimal Inhibitory Concentration (MIC). In short, it runs like this: as §1
The test system of assay [2] is S. epidermidis ATCC 12228. In words: MIC by agar dilution, S. epidermidis ATCC 12228. The following applies: Staphylococcus epidermidis, ATCC12228, 17 h; S. epidermidis ATCC 12228; agar dilution, Mueller-Hinton agar; read-out: Minimal Inhibitory Concentration (MIC). In short, it runs like this: as §1
The next assay has as its system P. vulgaris NCTC 8313. In words: MIC by agar dilution, P. vulgaris NCTC 8313. The settings on record: Proteus vulgaris, NCTC8313, 17 h; P. vulgaris NCTC 8313; agar dilution, Mueller-Hinton agar; read-out: Minimal Inhibitory Concentration (MIC). In short, it runs like this: as §1
A further assay deals with B. subtilis ATCC 6633. The assay can be described thus: MIC by agar dilution, B. subtilis ATCC 6633. The settings on record: Bacillus subtilis, ATCC6633, 17 h; B. subtilis ATCC 6633; agar dilution, Mueller-Hinton agar; read-out: Minimal Inhibitory Concentration (MIC). In short, it runs like this:
as §1

The test system of assay [3] is Ps. aeruginosa ATCC 10145. The assay can be described thus: MIC by agar dilution, Ps. aeruginosa ATCC 10145. The following applies: Pseudomonas aeruginosa, ATCC10145, 17 h, Mueller-Hinton agar, read-out: Minimal Inhibitory Concentration (MIC). In short, it runs like this:
as §1

Another assay concerns Staph. aureus ATCC 6538P. In words: MIC by agar dilution, Staph. aureus ATCC 6538P. The settings on record: Staphylococcus aureus, ATCC6538P, 17 h; Staph. aureus ATCC 6538P; agar dilution, Mueller-Hinton agar; read-out: Minimal Inhibitory Concentration (MIC). In short, it runs like this: as §1
For assay [4], the system named is Ser. marcescens IFO 12648. The assay can be described thus: MIC by agar dilution, Ser. marcescens IFO 12648. The following applies: Serratia marcescens, IFO12648, 17 h; Ser. marcescens IFO 12648; agar dilution, Mueller-Hinton agar; read-out: Minimal Inhibitory Concentration (MIC). In short, it runs like this:
as §1

The next assay concerns Staph. aureus Smith. In words: MIC by agar dilution, Staph. aureus Smith. The settings on record: Staphylococcus aureus, 17 h, Mueller-Hinton agar, read-out: Minimal Inhibitory Concentration (MIC). In short, it runs like this: as §1
The test system of a further assay is Ps. aeruginosa DY-2. In words: MIC by agar dilution, Ps. aeruginosa DY-2. The settings on record: Pseudomonas aeruginosa, DY2, 17 h; Ps. aeruginosa DY-2; agar dilution, Mueller-Hinton agar; read-out: Minimal Inhibitory Concentration (MIC). In short, it runs like this: as §1
Another assay concerns K. pneumoniae NCTC 9632. The assay can be described thus: MIC by agar dilution, K. pneumoniae NCTC 9632. The following applies: Klebsiella pneumoniae, NCTC9632, 17 h; K. pneumoniae NCTC 9632; agar dilution, Mueller-Hinton agar; read-out: Minimal Inhibitory Concentration (MIC). In short, it runs like this: as §1
In the next assay the test system is E. coli NIHJ JC-2. The assay can be described thus: MIC by agar dilution, E. coli NIHJ JC-2. The settings on record: Escherichia coli, NIHJJC2, 17 h; E. coli NIHJ JC-2; agar dilution, Mueller-Hinton agar; read-out: Minimal Inhibitory Concentration (MIC). In short, it runs like this:
as §1

Another assay has as its system Staph. aureus C-57. In words: MIC by agar dilution, Staph. aureus C-57. The following applies: Staphylococcus aureus, C57, 17 h, Mueller-Hinton agar, read-out: Minimal Inhibitory Concentration (MIC). In short, it runs like this:
as §1

A further assay has as its system Prov. stuartii IFO 12930. In words: MIC by agar dilution, Prov. stuartii IFO 12930. The settings on record: Providencia stuartii, IFO12930, 17 h, Mueller-Hinton agar, read-out: Minimal Inhibitory Concentration (MIC). In short, it runs like this:
as §1

The test system of a further assay is E. coli No. 29. In words: MIC by agar dilution, E. coli No. 29. The following applies: Escherichia coli, 17 h; E. coli No. 29; agar dilution, Mueller-Hinton agar; read-out: Minimal Inhibitory Concentration (MIC). In short, it runs like this: as §1
The test system of a further assay is Ent. cloacae IFO 13535. The assay can be described thus: MIC by agar dilution, Ent. cloacae IFO 13535. The following applies: Enterobacter cloacae, IFO13535, 17 h; Ent. cloacae IFO 13535; agar dilution, Mueller-Hinton agar; read-out: Minimal Inhibitory Concentration (MIC). In short, it runs like this:
as §1

Take `CO/N=C(\C(=O)N[C@@H]1C(=O)N2C(C(=O)[O-])=C(C[n+]3ccn4c(C(C)O)ccc4c3)CS[C@H]12)c1nsc(N)n1` (stereo partly drawn) [Ex. 51, 7-β-[(Z)-2-(5-amino-1,2,4-thiadiazol-3-yl)-2-methoxyiminoacetamido]-3-[6-(1-hydroxyethyl)pyrrolo[1,2-a]-pyrazinium-2-yl]methyl-3cephem-4-carboxylate]: the MIC in the assay on E. coli DY-1 is 0.025 µg/mL (≈ 0.0448 µM); with Staph. aureus C-5216 it was 1.56 µg/mL (≈ 2.79 µM); in the assay on M. morganii DY-1, 0.1 µg/mL (≈ 0.179 µM); in the assay with Staph. aureus C-5113, 1.56 µg/mL (≈ 2.79 µM); in assay [1], 0.2 µg/mL (≈ 0.358 µM); in the assay with Ent. aerogenes IFO 12979, 0.025 µg/mL (≈ 0.0448 µM). Moreover, the MIC in [2] was 0.1 µg/mL (≈ 0.179 µM); in the assay with P. vulgaris NCTC 8313 it was 0.05 µg/mL (≈ 0.0895 µM); in the assay with B. subtilis ATCC 6633, 0.2 µg/mL (≈ 0.358 µM); in [3], 1.56 µg/mL (≈ 2.79 µM); in the assay on Staph. aureus ATCC 6538P, 0.78 µg/mL (≈ 1.4 µM); in [4], 0.05 µg/mL (≈ 0.0895 µM). Moreover, the MIC with Staph. aureus Smith was 1.56 µg/mL (≈ 2.79 µM); in the assay on Ps. aeruginosa DY-2, 3.13 µg/mL (≈ 5.6 µM); in the assay on K. pneumoniae NCTC 9632 it was 0.05 µg/mL (≈ 0.0895 µM); with E. coli NIHJ JC-2, 0.025 µg/mL (≈ 0.0448 µM); in the assay on Staph. aureus C-57 it was 50 µg/mL (≈ 89.5 µM); in the assay with Prov. stuartii IFO 12930 it was 0.012 µg/mL (≈ 0.0215 µM). For the same compound, the MIC with E. coli No. 29 amounted to 0.025 µg/mL (≈ 0.0448 µM); in the assay with Ent. cloacae IFO 13535 it was 0.1 µg/mL (≈ 0.179 µM).
Regarding `CO/N=C(\C(=O)N[C@@H]1C(=O)N2C(C(=O)[O-])=C(C[n+]3ccn4c(SCCO)ccc4c3)CS[C@H]12)c1nc(N)sc1Cl` [Ex. 52, 7-β-[(Z)-2-(2-amino-5-chlorothiazol-4-yl)-2-methoxyiminoacetamido]-3-[6-(2-hydroxyethylthio)pyrrolo[1,2-a]-pyrazinium-2-yl]methyl-3-cephem-4-carboxylate], the MIC in the assay on E. coli DY-1 was found to be 0.025 µg/mL (≈ 0.0401 µM); in the assay on Staph. aureus C-5216, 0.78 µg/mL (≈ 1.25 µM); in the assay with M. morganii DY-1 it was 0.2 µg/mL (≈ 0.32 µM); with Staph. aureus C-5113 it was 1.56 µg/mL (≈ 2.5 µM); in [1], 1.56 µg/mL (≈ 2.5 µM); in the assay on Ent. aerogenes IFO 12979, 0.1 µg/mL (≈ 0.16 µM). The MIC in assay [2] was determined as 0.1 µg/mL (≈ 0.16 µM); with P. vulgaris NCTC 8313, 0.012 µg/mL (≈ 0.0192 µM); with B. subtilis ATCC 6633 it was 0.1 µg/mL (≈ 0.16 µM); in assay [3] it was 1.56 µg/mL (≈ 2.5 µM); with Staph. aureus ATCC 6538P, 0.2 µg/mL (≈ 0.32 µM); in [4], 0.2 µg/mL (≈ 0.32 µM). The MIC in the assay with Staph. aureus Smith was 1.56 µg/mL (≈ 2.5 µM); with Ps. aeruginosa DY-2, 12.5 µg/mL (≈ 20 µM); in the assay on K. pneumoniae NCTC 9632 it was 0.1 µg/mL (≈ 0.16 µM); in the assay on E. coli NIHJ JC-2, 0.2 µg/mL (≈ 0.32 µM); with Staph. aureus C-57, 6.25 µg/mL (≈ 10 µM); in the assay on Prov. stuartii IFO 12930, 0.025 µg/mL (≈ 0.0401 µM). The MIC worked out at 0.1 µg/mL (≈ 0.16 µM) with E. coli No. 29 and 0.78 µg/mL (≈ 1.25 µM) with Ent. cloacae IFO 13535.
`CO/N=C(\C(=O)N[C@@H]1C(=O)N2C(C(=O)[O-])=C(C[n+]3ccn4c(SCCO)ccc4c3)CS[C@H]12)c1nsc(N)n1` [Ex. 53, 7-β-[(Z)-2-(5-amino-1,2,4-thiadiazol-3-yl)-2-methoxyiminoacetamido]-3-[6-(2-hydroxyethylthio)pyrrolo[1,2-a]-pyrazinium-2-yl]methyl-3-cephem-4-carboxylate]: the MIC in the assay on E. coli DY-1 came out at 0.025 µg/mL (≈ 0.0423 µM); with Staph. aureus C-5216, 3.13 µg/mL (≈ 5.3 µM); in the assay with M. morganii DY-1, 0.05 µg/mL (≈ 0.0846 µM); with Staph. aureus C-5113, 3.13 µg/mL (≈ 5.3 µM); in assay [1], 0.78 µg/mL (≈ 1.32 µM); in the assay on Ent. aerogenes IFO 12979, 0.025 µg/mL (≈ 0.0423 µM). For the same compound, the MIC in assay [2] was determined as 3.39 µg/mL (≈ 5.74 µM); with P. vulgaris NCTC 8313, 0.1 µg/mL (≈ 0.169 µM); with B. subtilis ATCC 6633, 0.2 µg/mL (≈ 0.339 µM); in assay [3] it was 0.78 µg/mL (≈ 1.32 µM); with Staph. aureus ATCC 6538P, 0.78 µg/mL (≈ 1.32 µM); in [4] it was 0.05 µg/mL (≈ 0.0846 µM). Moreover, the MIC in the assay on Staph. aureus Smith worked out at 3.13 µg/mL (≈ 5.3 µM); in the assay on Ps. aeruginosa DY-2, 6.25 µg/mL (≈ 10.6 µM); in the assay on K. pneumoniae NCTC 9632 it was 0.025 µg/mL (≈ 0.0423 µM); with E. coli NIHJ JC-2, 0.025 µg/mL (≈ 0.0423 µM); with Staph. aureus C-57, 25 µg/mL (≈ 42.3 µM); with Prov. stuartii IFO 12930, 0.025 µg/mL (≈ 0.0423 µM). The MIC in the assay on E. coli No. 29 came to 0.05 µg/mL (≈ 0.0846 µM); with Ent. cloacae IFO 13535 it was 0.1 µg/mL (≈ 0.169 µM).
